Laboratory results: patent US9555024B2, “Substituted (E)-N′-(1-phenylethylidene)benzohydrazide analogs as histone demethylase inhibitors” (University of Utah Research Foundation, priority 2011, dated 2017)

Tests used:
[1] = target: MAO B (Homo sapiens (Human), UniProt P27338); assay: Monoamine Oxidase assay (MAO-Glo Assay Kit); settings: result in words
[2] = system: T-47D cells; assay: Cell Viability Assay (ATPlite); format: cell-based; settings: Homo sapiens, T47D, 96-hours of incubation, read-out: Cell Growth, IC50
Protocol: Cells were cultured according to the procedures provided. […] Cells were cultured at 37° C. and 5% CO2.
Cell viability was determined using ATPlite™ Luminescence Assay System (PerkinElmer Inc., Waltham, Mass.) using the various cell-lines described above and in Table 4. Briefly, cells were seeded in 96-well plates and then treated with different concentrations of inhibitor (0.1% final DMSO concentration). After 96-hours of incubation, ATPlite detection reagent was added directly to the culture well. Luminescence was read 5 minutes later on an Envision microplate reader.
(§1) IC50 values are determined using GraphPad Prism 5 software. The data were entered as an X-Y plot into the software as percent inhibition for each concentration of the drug. The concentration values of the drug were log transformed and the nonlinear regression was carried out using the “sigmoidal dose-response (variable slope)” option within the GraphPad software to model the data and calculate IC50 values.

[3] = system: heme oxygenase (HMOX); assay: Real-Time PCR of heme oxygenase (HMOX) expression in T-47D cells; format: cell-based, human; settings: normalized to HPRT and β-actin
Protocol: Briefly, T-47D cells were seeded in 96-well plates and treated with concentrations of inhibitors as indicated. Cell lysates, Reverse transcription, and single color syber green realtime PCR was performed using the Cells-to-Ct kit (Life Technologies). Transcript levels of heme oxygenase (HMOX) were normalized to hypoxanthine phosphoribosyltransferase (HPRT) and β-actin.

[4] = target: MAO A (Homo sapiens (Human), UniProt P21397); assay: Monoamine Oxidase assay (MAO-Glo Assay Kit); settings: result in words
Sequence of MAO A (P21397 whole entry): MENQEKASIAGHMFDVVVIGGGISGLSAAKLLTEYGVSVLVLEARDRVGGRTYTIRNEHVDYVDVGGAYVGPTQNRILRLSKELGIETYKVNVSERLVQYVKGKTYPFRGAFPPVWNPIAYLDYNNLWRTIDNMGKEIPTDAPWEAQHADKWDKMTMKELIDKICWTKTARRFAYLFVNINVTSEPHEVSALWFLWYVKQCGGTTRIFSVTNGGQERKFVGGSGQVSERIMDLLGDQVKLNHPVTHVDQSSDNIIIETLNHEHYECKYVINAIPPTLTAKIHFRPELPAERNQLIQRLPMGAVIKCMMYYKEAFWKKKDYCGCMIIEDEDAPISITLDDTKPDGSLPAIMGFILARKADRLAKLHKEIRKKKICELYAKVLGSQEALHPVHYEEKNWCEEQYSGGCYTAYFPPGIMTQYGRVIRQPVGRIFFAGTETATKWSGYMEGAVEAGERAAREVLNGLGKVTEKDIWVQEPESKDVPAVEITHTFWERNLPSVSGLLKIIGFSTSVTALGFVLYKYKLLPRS
Protocol: Recombinant (expressed in baculovirus infected BTI insect cells) monoamine oxidase A and monoamine oxidase B (Catalog No. M7316 and M7441, respectively) were purchased from Sigma-Aldrich Co. LLC. […] MAO-Glo™ Assay Kit was purchased from Promega Corporation (Madison, Wis.).
Briefly, 6.25 μL of test compound was added to each well of a 384-well plate. Enzyme (either MAO A or B) was added (12.5 μL in 2× buffer containing 1 μg protein) and allowed to incubate for 5 minutes. Finally, 6.25 μL of 4×MAO substrate was added to each well. Following a one hour incubation, 25 μL of Luciferin detection reagent was added to each well, and incubated for 20 minutes. Luminescence was then measured on an Envision microplate reader.
as §1

Sequence of MAO B (P27338 whole entry): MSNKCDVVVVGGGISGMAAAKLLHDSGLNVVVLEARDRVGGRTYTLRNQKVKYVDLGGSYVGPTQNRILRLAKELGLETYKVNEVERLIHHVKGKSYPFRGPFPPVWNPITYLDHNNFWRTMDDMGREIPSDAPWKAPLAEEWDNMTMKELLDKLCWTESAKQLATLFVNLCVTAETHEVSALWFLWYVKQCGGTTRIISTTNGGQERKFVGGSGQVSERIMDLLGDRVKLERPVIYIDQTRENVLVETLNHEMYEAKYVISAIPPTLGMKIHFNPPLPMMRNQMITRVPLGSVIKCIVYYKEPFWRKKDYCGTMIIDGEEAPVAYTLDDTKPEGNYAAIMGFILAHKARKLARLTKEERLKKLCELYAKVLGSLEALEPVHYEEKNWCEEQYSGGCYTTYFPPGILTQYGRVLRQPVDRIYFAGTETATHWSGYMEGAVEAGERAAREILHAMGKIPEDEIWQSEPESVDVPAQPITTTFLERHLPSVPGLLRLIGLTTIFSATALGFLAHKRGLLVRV

Compound | activity against MAO B [1] | IC50 [2] | HMOX expression (fold-induction) [3] | activity against MAO A [4]
O=C(N/N=C/c1ccccc1O)c1ccc(O)cc1 [Compound 1] | comparable activity to tranylcypromine | – | – | –
C/C(=N\NC(=O)c1ccccc1)c1c(O)cccc1O [Compound 14] | – | > 10 µM | 1.1 fold-induction | –
N[C@@H]1CC1c1ccccc1 (some centres unmarked) [tranylcypromine, reference compound] | exhibited activity | – | – | exhibited activity
